In the supplement of paper PMC10307832:

Tests used:
Assay in all cases: relative viability (nuclei count vs DMSO), 5 days (fraction); higher = more cells survive
Motesanib + OSI-027 = compound: CC1(C)CNc2cc(NC(=O)c3cccnc3NCc3ccncc3)ccc21 [Motesanib] + COc1cccc2cc(-c3nc([C@H]4CC[C@H](C(=O)O)CC4)n4ncnc(N)c34)[nH]c12 [OSI-027] (partner 0.5 µM)
How it was run: (§1)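 Dosing by pin tool came one day after lung cancer cell lines were seeded in 1536-well plates, using either one drug or a fixed anchor-drug dose plus five library-drug doses (not always all listed) in √10 steps. After 5 days, nuclei were counted on 4× images. Relative viability is treated-well nuclei count divided by vehicle-well nuclei count, and values are medians of duplicate plates.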

Motesanib + Vorinostat = compound: CC1(C)CNc2cc(NC(=O)c3cccnc3NCc3ccncc3)ccc21 [Motesanib] + O=C(CCCCCCC(=O)Nc1ccccc1)NO [Vorinostat] (partner 1 µM)
How it was run: as §1

[1] = compound: C[C@@]1(C(=O)Nc2ccc(F)nc2)CCCN1c1nc(Nc2cc(C3CC3)n[nH]2)c2cccn2n1 + CC1(C)CCC(c2ccc(Cl)cc2)=C(CN2CCN(c3ccc(C(=O)NS(=O)(=O)c4ccc(N[C@H](CCN5CCOCC5)CSc5ccccc5)c(S(=O)(=O)C(F)(F)F)c4)cc3)CC2)C1 [Navitoclax] (partner 0.5 µM)
How it was run: as §1

[2] = compound: C[C@@]1(C(=O)Nc2ccc(F)nc2)CCCN1c1nc(Nc2cc(C3CC3)n[nH]2)c2cccn2n1 + C[C@]1(O)C[C@@H](c2nc(-c3ccc4ccc(-c5ccccc5)nc4c3)c3c(N)nccn32)C1 [Linsitinib] (partner 1 µM)
How it was run: as §1

Cell Line	relative viability (Motesanib + OSI-027; first compound 0.01 µM)	relative viability (Motesanib + OSI-027; first compound 0.03162 µM)	relative viability (Motesanib + OSI-027; first compound 0.1 µM)	relative viability (Motesanib + OSI-027; first compound 0.3162 µM)	relative viability (Motesanib + OSI-027; first compound 1 µM)	relative viability (Motesanib + Vorinostat; first compound 0.01 µM)	relative viability (Motesanib + Vorinostat; first compound 0.03162 µM)	relative viability (Motesanib + Vorinostat; first compound 0.1 µM)	relative viability (Motesanib + Vorinostat; first compound 0.3162 µM)	relative viability (Motesanib + Vorinostat; first compound 1 µM)	relative viability ([1]; first compound 0.04 µM)	relative viability ([1]; first compound 0.1265 µM)	relative viability ([1]; first compound 0.4 µM)	relative viability ([1]; first compound 1.265 µM)	relative viability ([2]; first compound 0.04 µM)	relative viability ([2]; first compound 0.1265 µM)	relative viability ([2]; first compound 0.4 µM)	relative viability ([2]; first compound 1.265 µM)
201T	0.683	0.726	0.779	0.506	0.69	0.929	0.974	1.08	1.01	1.01	1.15	1.09	1.11	1.16	0.97	0.97	0.908	1.04
A549											0.95	0.902	0.742	0.688	0.681	0.571	0.401	0.79
A-427	0.4	0.459	0.485	0.545	0.5	0.96	0.87	0.913	0.89	0.88	0.885	0.988	1.03	0.915	1.11	1.05	1.08	1.16
ABC-1	0.438	0.521	0.407	0.332	0.604	0.786	1.22	0.939	1.24	1.06					1.05	0.711	0.619	0.777
BEN	0.281	0.277	0.272	0.291	0.31	0.543	0.56	0.637	0.654	0.772	0.0599	0.0547	0.0804	0.0539	0.895	1.24	0.766	1.04
CAL-12T	0.628	0.731	0.685	0.555	0.677	0.797	0.847	0.692	0.795	0.86	1.18	1.16	1.14	1.06	0.827	0.849	0.78	0.817
COR-L23	0.788	0.721	0.874	0.753	0.806	0.45	0.387	0.53	0.44	0.459	1.02	1.06	0.821	0.681	0.818	0.855	0.768	0.705
COR-L 105	0.768	0.7	0.717	0.689	0.626	0.861	0.866	0.81	1.03	0.819	0.788	0.477	0.65	0.607	0.796	0.808	0.627	0.946
Calu-6											0.83	0.637	0.62	0.141	0.91	0.895	0.833	0.859
ChaGo-K-1	0.637	0.474	0.495	0.597	0.563	0.745	0.764	0.745	0.818	0.748	0.917	0.616	1.06	0.673				
EBC-1											0.342	0.315	0.315	0.197	0.953	0.76	0.706	0.891
EKVX	0.684	0.655	0.788	0.732	0.674	0.777	0.819	0.777	0.895	0.867	0.944	0.728	0.785	0.593	0.989	0.742	0.725	0.964
EMC-BAC-2	0.398	0.341	0.36	0.412	0.378	0.408	0.475	0.426	0.417	0.43	1.13	1.12	0.947	1.22	0.808	0.897	0.795	0.884
EPLC-272H	0.236	0.311		0.263	0.244	0.385	0.518	0.448	0.479	0.477	1.07	1.04	1.07	1.21	1.39	1.07	1.12	1.58
H3255	0.608	0.601	0.603	0.558	0.635	0.694	0.88	0.661	0.893	0.773	0.684	0.463	0.49	0.36	1.14	1.03	0.833	0.986
HARA	0.439	0.724	0.527	0.554	0.557	0.573	0.706	0.538	0.638	0.565	1.16	1.18	1.17	1.16	0.947	0.939	0.88	1.12
HCC-15	0.693	0.65	0.64	0.817	0.64	0.883	0.843	0.866	0.875	0.877	0.663	0.561	0.528	0.58	0.902	0.885	0.782	0.981
HCC-44	0.552	0.431	0.633	0.633	0.544	1.14	1.02	1.17	1.08	1.09	0.804	0.884	0.68	0.903	0.777	0.622	0.605	0.945
HCC-78	0.343	0.348	0.405	0.345	0.297	0.429	0.467	0.494		0.413	0.7	0.505	0.308	0.268	0.541	0.332	0.313	0.259
